# Assay: Light resistance of PMMA polymer film (residual amount after metal halide lamp irradiation)
# Type: physicochemical
# Details: 0.2 mass % compound in PMMA film, 50-μm thick; metal halide lamp (about 290 nm or less cut), 90 mW/cm^2, 63° C., humidity 50%, irradiation for 600 hours; absorbance at maximum absorption wavelength
# Description: A binder solution was prepared by dissolving 22 mass % of a PMMA resin (“DIANAL BR-80”, trade name, produced by Mitsubishi Rayon Co., Ltd.) in methylene chloride. […] The coating solution was applied on glass as a base material by means of a 200 μm blade and dried at 100° C. for 10 minutes to form a 50-μm thick coating, whereby a film was produced. […] The residual amount was calculated according to the following formula: Residual amount (%)=100×(absorbance after irradiation)/(absorbance before irradiation)
# Incidentally, the absorbance is a value measured at the maximum absorption wavelength of each compound.
row,Residual Amount (%),SMILES
1,14%,CCCCCCCCOc1ccc(-c2nc(-c3ccc(C)cc3C)nc(-c3ccc(C)cc3C)n2)c(O)c1 [Comparative Compound B]
2,44%,CCCCCCOc1ccc(-c2nc(-c3ccccc3)nc(-c3ccccc3)n2)c(O)c1 [Comparative Compound A]

# — patent US8957140B2, “Triazine derivative, ultraviolet absorber, and resin composition” (FUJIFILM Corporation, priority 2009, dated 2015)
